The record followed here is the Kinase Knowledgebase extract (Sharma et al. 2016).

Experiment [1] addresses MAPK14 (human) (UniProt Q16539). Description: Enzyme Assay. To be noted: A375; concentration not given here.
Experiment [2] has the same target. The experiment in a line: Enzyme Assay. To be noted: A375; concentration not given here. The source holds these as a separate data set.

Chain of MAPK14 (human) (Q16539 whole entry, looked up): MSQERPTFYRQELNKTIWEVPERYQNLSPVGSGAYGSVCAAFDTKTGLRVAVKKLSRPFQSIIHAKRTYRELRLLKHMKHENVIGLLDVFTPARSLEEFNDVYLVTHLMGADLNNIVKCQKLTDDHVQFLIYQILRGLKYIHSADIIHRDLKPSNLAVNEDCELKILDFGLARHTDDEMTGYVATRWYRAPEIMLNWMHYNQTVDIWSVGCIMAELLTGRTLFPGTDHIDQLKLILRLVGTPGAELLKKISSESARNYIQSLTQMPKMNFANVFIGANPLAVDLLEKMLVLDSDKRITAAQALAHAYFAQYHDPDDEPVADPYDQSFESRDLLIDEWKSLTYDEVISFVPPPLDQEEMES

Take `COc1cccc(-c2cc(=O)c3ccccc3o2)c1N`: the activity was found to be 25.3% in experiment [1] and 34.7% in experiment [2].
The corresponding values for `N#CC(=C(/N)Sc1ccccc1N)/C(C#N)=C(\N)Sc1ccccc1N` are 6.32% and 18.9%.
